Results taken from patent US20170227545A1, “REACTIVITY-BASED SCREENING FOR NATURAL PRODUCT DISCOVERY” (THE BOARD OF TRUSTEES OF THE UNIVERSITY OF ILLINOIS, priority 2014, published 2017).
Values after ≈ are worked out from the molar mass of the structure shown. Where two headings read alike, the source gives them in different places.

Key:
Type in all cases: cell-based
[1] = test system: Bacillus anthracis strain Sterne; assay: microbe, parasite or virus in culture
[2] = test system: Bacillus subtilis strain 168; assay: Antibiotic activity, microbroth dilution MIC
[3] = test system: Enterococcus faecalis U503 (vancomycin-resistant); assay: Antibiotic activity, microbroth dilution MIC
[4] = test system: Listeria monocytogenes strain 4b F2365; assay: Antibiotic activity, microbroth dilution MIC
[5] = test system: Staphylococcus aureus USA300 (methicillin-resistant); assay: Antibiotic activity, microbroth dilution MIC
E. coli MC4100 = assay: Antibiotic activity, microbroth dilution MIC; settings: 37° C. 12 h
[6] = test system: Neisseria sicca ATCC 29256; assay: Antibiotic activity, microbroth dilution MIC
[7] = test system: Pseudomonas putida KT2440; assay: Antibiotic activity, microbroth dilution MIC
Aspergillus niger = assay: Antifungal activity, microbroth dilution MIC
Fusarium virguliforme = assay: Antifungal activity, microbroth dilution MIC
Saccharomyces cerevisiae = assay: Antifungal activity, microbroth dilution MIC
Talaromyces stipitatus = assay: Antifungal activity, microbroth dilution MIC
[8] = test system: Gram-positive (Firmicutes) bacteria; settings: several Gram-positive bacteria, result in words
[9] = test system: Gram-negative (Proteobacteria) organisms; settings: all tested Gram-negatives, result in words
fungal strains = assay: Growth inhibition, panel of fungal strains; settings: result in words
[10] = microbroth dilution, 37° C. 12 h
[11] = microbroth dilution, 30° C. 36 h

Question: With `C=C1NC(=O)CNC(=O)[C@H](CCCCN)NC(=O)[C@@]2(C)NC(=O)/C(=C/C)NC(=O)[C@@H]3CSC(=N3)[C@H](CC(N)=O)NC(=O)c3ccc(nc3[C@@H](C)NC(=O)[C@@H]3CCCN3C1=O)-c1nc(cs1)C1=N[C@@H](CS1)C(=O)NC(=C)c1nc(cs1)-c1nc(cs1)C1=N[C@H](CS1)C(=O)N[C@H](C(=O)O)CS2` [cyclothiazomycin C] as the compound, how does the MIC ([1]; 12 h) read?
Answer: Its MIC is 1 µg/mL (≈ 0.673 µM).

Question: What about the MIC ([2]; 168, 37° C. 12 h, read-out: MIC) of the same compound?
Answer: Its MIC is 4 µg/mL (≈ 2.69 µM).

Question: And the MIC ([3]; 12 h)?
Answer: The MIC was 32 to 64 µg/mL (≈ 21.5 to 43 µM).

Question: And the MIC ([4]; 4BF2365, 37° C. 12 h, read-out: MIC)?
Answer: Its MIC is 16 µg/mL (≈ 10.8 µM).

Question: And the MIC ([5]; USA300, 12 h)?
Answer: Its MIC is 16 µg/mL (≈ 10.8 µM).

Question: What about the MIC (E. coli MC4100; MC4100, Escherichia coli, read-out: MIC) of the same compound?
Answer: Its MIC is > 64 µg/mL.

Question: And the MIC ([6]; ATCC29256, 37° C. 12 h, read-out: MIC)?
Answer: The MIC was > 64 µg/mL.

Question: What about the MIC ([7]; KT2440, 37° C. 12 h, read-out: MIC) of the same compound?
Answer: Its MIC is > 64 µg/mL.

Question: And the MIC (Aspergillus niger; 36 h)?
Answer: The MIC was > 64 µg/mL.

Question: What about the MIC (Fusarium virguliforme; 60 h) of the same compound?
Answer: Its MIC is > 64 µg/mL.

Question: What about the MIC (Saccharomyces cerevisiae; 36 h) of the same compound?
Answer: Its MIC is > 64 µg/mL.

Question: What about the MIC (Talaromyces stipitatus; 36 h) of the same compound?
Answer: The MIC was > 64 µg/mL.

Question: And the “growth inhibitory action toward Gram-positive (Firmicutes) bacteria” value [8]?
Answer: The value was “exhibited growth inhibitory action”.

Question: And the “activity against Gram-negative (Proteobacteria) organisms” value [9]?
Answer: Its value is “inactive”.

Question: And the “growth inhibitory action toward fungal strains” value (fungal strains)?
Answer: Its value is “none was observed”.

Question: Which results are given for cyclothiazomycin B [reference compound]?
Answer: MIC [1, 10]: 1 µg/mL; MIC ([2]; 37° C. 12 h): 2 µg/mL; MIC [3, 10]: 32 µg/mL; MIC ([4]; 37° C. 12 h): 8 µg/mL; MIC [5, 10]: 4 µg/mL; MIC (E. coli MC4100; Escherichia coli): 64 µg/mL; MIC ([6]; 37° C. 12 h): >64 µg/mL; MIC ([7]; 37° C. 12 h): >64 µg/mL; MIC (Aspergillus niger; [11]): >64 µg/mL; MIC (Fusarium virguliforme; microbroth dilution, 30° C. 60 h): 64 µg/mL; MIC (Saccharomyces cerevisiae; [11]): 64 µg/mL; MIC (Talaromyces stipitatus; [11]): 64 µg/mL; activity against Gram-negative (Proteobacteria) organisms [9]: little to no activity; growth inhibitory action toward fungal strains (fungal strains): little to no activity
